Assay results: patent US10583109B2, “Use of silver(I) complexes as anticancer agents” (University of Johannesburg, priority 2012, dated 2020)

Key:
[1] = system: MCF-7 breast cancer cells; assay: AlamarBlue viability and proliferation assay of MCF-7 breast cancer cells; format: cell-based, human; settings: MCF-7 cells
Procedure: For the biological studies, MCF-7 breast cancer cells were obtained from an immortal cell line from human adenocarcinoma from (primary site) mammary gland and (metastatic site) pleural effusion (ATCC no HTB-22).
MCF-7 breast cancer cells were cultured in Dulbecco's modified Eagle's medium (DMEM), 13.53 g/L with sodium bicarbonate (NaHCO3), 3.7 g/L supplemented with 10% foetal bovine serum (FBS), 1% gentamycin and 5% Penicillin/Streptomycin/Fungizone in 75 cm^3 culture flasks. Cells were subcultured twice a week and incubated at 37° C. with 5% CO2 in a humidified atmosphere. Hanks balanced salt solution (HBSS), supplemented DMEM media and trypsin versene were warmed to 37° C. prior to subculturing. Cells were washed twice with 10 ml Hanks balanced salt solution for 1 minute and were then incubated for 4.5 to 5 minutes at 37° C. with 6 ml trypsin versene to remove the cells from the culture flask. To inactivate the trypsin versene, 10 ml supplemented DMEM was added and the cells were pelleted by centrifugation at 1028 g for 4 minutes with an Allegra™ 25R Centrifuge. The pellet was resuspended in 1 ml supplemented DMEM and 500 μl of the cell suspension was then added to 25 ml of supplemented DMEM media in 75 cm^3 culture flasks.
MCF-7 breast cancer cells, in terms of a first study, and SNO-oesophageal cancer cells, in terms of a second study, were treated with 10 μM silverthiocyanide complexes (1)-(5), as well as their ligands (Ligand-1 to Ligand-5) over a 24 hour incubation period. […] An untreated negative control (UT) was exposed to similar conditions as the treated cells and monitored during the experimental study.
The AlamarBlue® viability and proliferation assay of complexes (1)-(5) for the MCF-7 breast cancer cells is depicted in FIGS. 1A to 1F. The percentage viability of control samples determined by the AlamarBlue® viability and proliferation assay is depicted in FIG. 1A. […] A significant difference (P<0.001) between the control and the treated samples was calculated using Student's T-test and is indicated by an asterisk.
This Figure depicts the percentage viability of MCF-7 cells treated with various concentrations of complex (1) as determined by the AlamarBlue® viability and proliferation assay. […] The asterisk indicates a significant difference between a sample and the control (P<0.001) as calculated with Student's T-test.
FIG. 1C to FIG. 1F represent the dose dependant studies of complexes (2) to (5), respectively. In each of these Figures, the percentage viability of MCF-7 cells treated with various concentrations of complexes (2) to (5) was determined by the AlamarBlue® viability and proliferation assay. […] The asterisk indicates a significant difference between a sample and the control (P<0.001) as calculated with Student's T-test. […]

[2] = system: SNO-oesophageal cancer cells; assay: Morphological features of SNO-oesophageal cancer cells by inverse light microscopy; format: cell-based; settings: 10 μM, 24 hours of treatment
Procedure: Morphological studies were done by means of an Axiovert 25 inverted microscope (Carl Zeiss, Göttingen, Germany) with Axio Vision 3.1 software (Carl Zeiss, Göttingen, Germany) using an magnification of 100×.
After 24 hours of treatment with complexes (1)-(5) including their ligands the cells were examined under said Axiovert 25 inverted light microscope. This was done to determine how the complexes of the present invention influence morphology which was compared to 100 μM Cisplatin (apoptotic control) and 15% H2O2 (necrotic control).
Light microscope images indicating the morphology of the differentially treated SNO-oesophageal cancer cells is shown in FIG. 8. An untreated control (a) including 100 μM Cisplatin (b), an apoptotic control and 15% H2O2 (c), and a necrotic control was included. Cells were treated with 10 μM silver(I) thiocyanate phosphine complexes (1)-(5) as well as their separate ligands (Ligand-1 to Ligand-5, respectively) (FIGS. 8d to 8m). Black arrows represent signs of apoptosis, while the white arrows represent signs of necrosis.
An Axiovert 25 inverted microscope was used to examine if these complexes affect the morphological features of the malignant cells in any other way. This was done at a magnification of 100× with the use of Axio Version 3.1 software (Carl Zeiss, Gottingen, Germany).
Morphological studies where done after 24 hours of treatment to determine how these compounds influence/change specific features of the malignant SNO-oesophageal cancer cells, compared to the untreated (UC) and 1% DMSO vehicle control. The treated cancer cells including their controls were examined under an Axiovert 25 inverted light microscope (Carl Zeiss, Göttingen, Germany) with Axio Vision 3.1 software (Carl Zeiss, Göttingen, Germany) using a 100× magnification. In FIG. 19, the morphology of the different controls including Ligand-10 and complexes (10)-(12) are represented. To predict the targeting mechanisms of these compounds, the treated cells were compared to 100 μM Cisplatin (apoptotic control) and 25% H2O2 (necrotic control).

Row | Compound | cytotoxic activity (ranking) [1] | necrotic cell death (morphology) [2]
1 | C1#[N+][Ag]([P+](c2ccccc2)(c2ccccc2)c2ccccc2)([P+](c2ccccc2)(c2ccccc2)c2ccccc2)[S]C#[N+][Ag]([P+](c2ccccc2)(c2ccccc2)c2ccccc2)([P+](c2ccccc2)(c2ccccc2)c2ccccc2)[S]1 [complex (1), [AgSCN(PPh3)2]2] | strongest | Necrotic cell death was also observed
2 | [AgSCN{P(4-FC6H4)3}2]2 [complex (3)] | strongest | Necrotic cell death was also observed
